From patent US10351534B2, “Use of 3-carboxy-N-ethyl-N,N-dimethylpropan-1-aminium salts in the treatment of cardiovascular disease” (JSC GRINDEKS, priority 2011, dated 2019)
Marks after values point to notes of the source that are not given here.

Key:
isolated rat heart = assay: Isolated rat heart infarction study (after p.o. treatment); format: in vivo; conditions: for Infarct size, % of control: 20 mg/kg p.o. daily, isolated Wistar rat heart, 60 min occlusion, 150-min reperfusion, mean±s.e.m. of 9-10 animals; for decrease of infarct size: 20 mg/kg p.o., isolated rat heart infarction model, versus control
Protocol: Fifty male, 10 weeks old Wistar rats weighing 200-250 g were housed under standard conditions (21-23° C., 12 h light-dark cycle) with unlimited access to food (R3 diet, Lactamin AB, Sweden) and water.
Rats were adapted to local conditions for two weeks before the start of treatment. Meldonium dihydrate at a dose of 20 mg/kg, gamma-butyrobetaine at a dose of 20 mg/kg and 3-carboxy-N-ethyl-N,N-dimethylpropan-1-aminium salts at dose of 20 mg/kg were administered p.o. daily for 8 weeks. Control rats received water.
The isolated rat heart experiment was performed essentially as described earlier (Liepinsh et al., J. Cardiovasc. Pharmacol. 2006; 48(6):314-9). Twenty-four hours after the last drug administration hearts were excised and retrogradely perfused via the aorta at a constant pressure with oxygenated Krebs-Henseleit buffer at 37° C. The heart rate, left ventricle end-diastolic pressure and left ventricle developed pressure were continuously recorded. Coronary flow was measured using an ultrasound flow detector (HSE) and the PowerLab 8/30 system from ADInstruments. The hearts were perfused for 20 min to stabilize the hemodynamic functions and then occlusion was performed for 60 min by constricting threads through a plastic tube. Successful occlusion was confirmed by a coronary flow decrease of about 40 percent. Reperfusion was achieved by releasing the threads. At the end of the 150-min reperfusion period, the risk zone was delineated with 0.1% methylene blue. The hearts were then sectioned transversely from the apex to the base in five slices 2 mm in thickness and incubated in 1% triphenyltetrazolium chloride in phosphate buffer (pH 7.4, 37° C.) for 10 min to stain viable tissue red and necrotic tissue white. Computerized planemetric analysis of Sony A900 photographs was performed using Image-Pro Plus 6.3 software to determine the area at risk and area of necrosis expressed as a % of the left ventricle. The obtained values were then used to calculate the infarct size (IS) as a % of risk area according to the formula: Infarct Size=Area of Necrosis/Area at Risk×100%.
The anti-infarction effect of examined substances was investigated in an isolated rat heart infarction model. During occlusion of left coronary artery, the coronary flow in all experimental groups was decreased for 40% (from 11 ml/min to 7 ml/min). Moreover, the drop of developed left ventricular pressure for 50% was observed. […] In reperfusion stage, coronary flow, developed left ventricular pressure, ±dp/dt values were recovered till about 80% of control level. There were no significant differences between control and treatment groups.

[1] = s.c.; cited from earlier work

Compound: 3-carboxy-N-ethyl-N,N-dimethylpropan-1-aminium 2-(acetyloxy)benzoate
- Infarct size, % of control (isolated rat heart): 61.6 ± 6.7*^,#,$ % of control
- decrease of infarct size (isolated rat heart): 38.4%

Compound: CC[N+](C)(C)CCCC(=O)O.O=C([O-])c1cc(=O)[nH]c(=O)[nH]1 [3-carboxy-N-ethyl-N,N-dimethylpropan-1-aminium 2,6-dioxo-1,2,3,6-tetrahydropyrimidine-4-carboxylate]
- Infarct size, % of control (isolated rat heart): 60.6 ± 6.7*^,#,$ % of control
- decrease of infarct size (isolated rat heart): 39.4%

Compound: CC[N+](C)(C)CCCC(=O)O.O=C([O-])CCC(=O)O [3-carboxy-N-ethyl-N,N-dimethylpropan-1-aminium 3-carboxypropanoate]
- Infarct size, % of control (isolated rat heart): 62.9 ± 4.7*^,#,$ % of control
- decrease of infarct size (isolated rat heart): 37.1%

Compound: CC[N+](C)(C)CCCC(=O)O.O=C([O-])/C=C/C(=O)O [3-carboxy-N-ethyl-N,N-dimethylpropan-1-aminium (2E)-3-carboxyacrylate]
- Infarct size, % of control (isolated rat heart): 46.5 ± 7.0*^,#,$ % of control
- decrease of infarct size (isolated rat heart): 53.5%

Compound: CC[N+](C)(C)CCCC(=O)O [3-carboxy-N-ethyl-N,N-dimethylpropan-1-aminium dihydrogen phosphate]
- Infarct size, % of control (isolated rat heart): 56.1 ± 4.4*^,#,$ % of control
- decrease of infarct size (isolated rat heart): 43.9%

Compound: C[N+](C)(C)CCCC(=O)[O-] [Gamma-butyrobetaine, γ-Butyrobetaine, reference compound]
- LD50 [1]: > 7000 mg/kg
- Infarct size, % of control (isolated rat heart): 87.6 ± 11.4 % of control
- decrease of infarct size (isolated rat heart): 12.4%

Compound: C[N+](C)(C)NCCC(=O)[O-] [Meldonium dihydrate, 3-(2,2,2-Trimethylhydrazinium) propionate dihydrate, reference compound]
- Infarct size, % of control (isolated rat heart): 117.9 ± 7.9 % of control
